Data set [1] concerns Lolium multiflorum. As to the kind of experiment: Test Example 1-1: foliar spray, controlling effect on Lolium multiflorum. Type of data set: in vivo. Also on record: key: 0 represents “no effect”; 10 represents “complete death”; a state of the plant therebetween is classified into 1 to 9. Conditions: treatment amount 250 g/ha; sprayed at first to second leaf stage; visually evaluated after 20 days. On the procedure: A plastic cup with a diameter of 8 cm and a depth of 6.5 cm was filled with soil. Seeds of Lolium multiflorum were sowed in the cup, and then the plant was grown until the first to second leaf stage. Then, a determined amount of a test solution containing the compound of the present invention was sprayed onto the whole plant uniformly. The test solution was prepared by dissolving a predetermined amount of the compound of the present invention in a 2% solution of Tween 20 (polyoxyethylene sorbitan fatty acid ester, MP Biomedicals, Inc.) in dimethylformamide and then, diluting the solution with water. After the spray treatment, the plant was grown in a greenhouse. After 20 days, a controlling effect of the compound on Lolium multiflorum was visually evaluated. The effect was classified into 11 levels, from 0 to 10 (0 represents “no effect”; 10 represents “complete death”; and a state of the plant therebetween is classified into 1 to 9).
Compound D as shown below was similarly tested as a comparative example.

Data set [2] has as its system Galium aparine. As to the kind of experiment: Test Example 1-3: foliar spray, controlling effect on Galium aparine. Type of data set: in vivo. Conditions: treatment amount 250 g/ha; sprayed at second- to third-leaf stage; visually evaluated after 20 days. On the set-up: key: 0 represents “no effect”; 10 represents “complete death”; a state of the plant therebetween is classified into 1 to 9. As to the method:
A plastic cup with a diameter of 8 cm and a depth of 6.5 cm was filled with soil. Seeds of Galium aparine were sowed in the cup, and then the plant was grown until the second- to third-leaf stage. Then, a determined amount of a test solution containing the compound of the present invention was sprayed onto the whole plant uniformly. The test solution was prepared by dissolving a predetermined amount of the compound of the present invention in a 2% solution of Tween 20 (polyoxyethylene sorbitan fatty acid ester, MP Biomedicals, Inc.) in dimethylformamide and then diluting the solution with water. After the spray treatment, the plant was grown in a greenhouse. After 20 days, a controlling effect of the compound on Galium aparine was visually evaluated. The effect was classified into 11 levels, from 0 to 10 (0 represents “no effect”; 10 represents “complete death”; and a state of the plant therebetween is classified into 1 to 9).
(§1) Compound D was similarly tested as a comparative example.

Data set [3] has as its system Echinochloa crus-galli. Briefly: Test Example 1-2: foliar spray, controlling effect on Echinochloa crus-galli. The data set is classed as in vivo. On the set-up: key: 0 represents “no effect”; 10 represents “complete death”; a state of the plant therebetween is classified into 1 to 9. Particulars: treatment amount 1,000 g/ha; sprayed at second- to third-leaf stage; visually evaluated after 20 days. On the procedure: A plastic cup with a diameter of 8 cm and a depth of 6.5 cm was filled with soil. Seeds of Echinochloa crus-galli were sowed in the cup, and then the plant was grown until the second- to third-leaf stage. Then, a determined amount of a test solution containing the compound of the present invention was sprayed onto the whole plant uniformly. The test solution was prepared by dissolving a predetermined amount of the compound of the present invention in a 2% solution of Tween 20 (polyoxyethylene sorbitan fatty acid ester, MP Biomedicals, Inc.) in dimethylformamide and then diluting the solution with water. After the spray treatment, the plant was grown in a greenhouse. After 20 days, a controlling effect of the compound on Echinochloa crus-galli was visually evaluated. The effect was classified into 11 levels, from 0 to 10 (0 represents “no effect”; 10 represents “complete death”; and a state of the plant therebetween is classified into 1 to 9).
as §1

In data set [4] the test system is Frankliniella occidentalis. As to the kind of experiment: Test Example 2-8: sprayed cucumber leaf, larvae of Frankliniella occidentalis. Type of data set: in vivo. Particulars: 500 ppm, 10 mL/cup sprayed on cucumber seedling; 25° C., 7 days. As to the method:
The formulation of the compound of the present invention obtained in Reference Example 3 was diluted with water so that the concentration of the active ingredient became 500 ppm to prepare a test solution. On a cucumber seedling at the second true leaf stage planted in a polyethylene cup, 10 mL/cup of the test solution was sprayed. After the test solution was dried, the first true […] cut off and then placed in a polyethylene cup. Into the polyethylene cup, 20 larvae of Frankliniella occidentalis were released, and the cup was sealed with a lid. After the cup was kept at 25° C. for 7 days, the number of the insects surviving on the cucumber leaves was counted, and a controlling value was determined by the following equation. Controlling value (%)={1-(Cb×Tai)/(Cai×Tb)}×100 wherein Cb: the number of insects in a non-treated section before treatment, Cai: the number of insects in a non-treated section on observation, Tb: the number of insects in a treated-section before treatment, Tai: the number of insects in a treated section on observation.

The subject of data set [5] is Adoxophyes orana. Briefly: Test Example 2-1: artificial diet test on first-instar larvae of Adoxophyes orana. The data set is classed as in vivo. Particulars: 500 ppm test solution, 1 mL on artificial diet; 25° C., 7 days. On the procedure: The formulation of the compound of the present invention obtained in Formulation Example 3 was diluted with water so that the concentration of the active ingredient became 500 ppm to prepare a test solution.
(§2) An artificial diet, Silkmate 2S (Nihon Nosan Kogyo Corp.) was sliced into 2 mm in thickness and then placed on the bottom of a polyethylene cup. Then, 1 mL of the test solution was poured into the polyethylene cup. After air dried, 30 first-instar larvae of Adoxophyes orana were released into the polyethylene cup, and the cup was sealed with a lid. After the polyethylene cup was kept at 25° C. for 7 days, the number of surviving insects was counted. A death rate was calculated by the following equation, and the effect of the tested compound was evaluated with the following insecticidal indexes. Death rate (%)={1−(Number of surviving insects/Number of tested insects)}×100 Insecticidal indexes 4: death rate of 100%, 3: death rate of 80-99%, 2: death rate of 60-79%, 1: death rate of 30-59%, 0: death rate of 0-29%

For data set [6], the system named is Spodoptera litura. Briefly: Test Example 2-2: artificial diet test on fourth-instar larvae of Spodoptera litura. The data set is classed as in vivo. Conditions: 500 ppm test solution, 1 mL on artificial diet; 25° C., 6 days. As to the method:
as §2, with “The formulation of the compound of the present invention obtained in Formulation Example 3 was diluted with water so that the concentration of the active ingredient became 500 ppm to prepare a test solution. An” for “An”, “diet, Insecta LF” for “diet, Silkmate 2S”, “dried, 5 fourth-instar” for “dried, 30 first-instar”, “of Spodoptera litura” for “of Adoxophyes orana”, “for 6” for “for 7”

Data set [7] has as its system Aphis gossypii. As to the kind of experiment: Test Example 2-6: cucumber seedling spray, imagoes of Aphis gossypii. The data set is classed as in vivo. Conditions: 500 ppm, 10 mL sprayed on cucumber seedling one day after release; counted five days after spraying. On the procedure: The formulation of the compound of the present invention obtained in Reference Example 3 was diluted with water so that the concentration of the active ingredient became 500 ppm to prepare a test solution. On a cucumber seedling at the second true leaf stage placed in a polyethylene cup, about 30 imagoes of Aphis gossypii were released. One day after the release of aphids, 10 mL of the test solution was sprayed on the plant. Five days after the spraying treatment, the number of the insects parasitizing the leaves of the plant was counted, and a controlling value was determined by the following equation. Controlling value (%)={1−(Cb×Tai)/(Cai×Tb)}×100 wherein Cb: the number of insects in a non-treated section before treatment, Cai: the number of insects in a non-treated section on observation, Tb: the number of insects in a treated-section before treatment, Tai: the number of insects in a treated section on observation.

The test system of data set [8] is Bemisia tabaci. As to the kind of experiment: Test Example 2-7: tomato seedling spray, larvae of Bemisia tabaci. Conditions: 500 ppm, 10 ml/cup sprayed on tomato seedling; 25° C., 7 days. Type of data set: in vivo. As to the method: The formulation of the compound of the present invention obtained in Reference Example 4 was diluted with water so that the concentration of the active ingredient became 500 ppm to prepare a test solution. On a tomato seedling at the third true leaf stage placed in a polyethylene cup, imagoes of Bemisia tabaci were released and allowed to lay eggs for about 24 hours. The plant was placed in a greenhouse for 8 days. When larvae of Bemisia tabaci hatched from the eggs, 10 ml/cup of the test solution was sprayed. After the plant was kept at 25° C. for 7 days, the number of the larvae surviving on the tomato leaves was counted, and a controlling value was determined by the following equation. Controlling value (%)={1−(Cb×Tai)/(Cai×Tb)}×100 wherein Cb: the number of insects in a non-treated section before treatment, Cai: the number of insects in a non-treated section on observation, Tb: the number of insects in a treated-section before treatment, Tai: the number of insects in a treated section on observation.

Data set [9] has as its system Culex pipiens pallens. As to the kind of experiment: Test Example 2-3: last-instar larvae of Culex pipiens pallens released into dilution. The data set is classed as in vivo. Particulars: active ingredient concentration 3.5 ppm in water; after 8 days. On the procedure: The formulation of the compound of the present invention obtained in Reference Example 3 was diluted with water so that the concentration of the active ingredient became 500 ppm to prepare a test solution. 0.7 mL of the test solution was diluted with ion-exchanged water so that the active ingredient concentration became 3.5 ppm. Into the dilution, 20 last-instar larvae of Culex pipiens pallens were released. After 8 days, the number of dead insects was counted. A death rate was calculated by the following equation, and the effect of the tested compound was evaluated with following insecticidal indexes of 4: death rate of 91-100%, 2: death rate of 11-90%, and 0: death rate of 0-10%. Death rate (%)=(Number of dead insects/Number of tested insects)×100

Consider `CCc1cc(C)cc(CC)c1-c1c(OC)c(C)nn(C)c1=O` [Compound D], for which the “controlling effect on Lolium multiflorum (11 levels, 0 to 10)” value in data set [1] was 0. In addition, the “controlling effect on Galium aparine (11 levels, 0 to 10)” value in [2] is recorded as 0. Besides, in [3], the “controlling effect on Echinochloa crus-galli (11 levels, 0 to 10)” value is listed as 0.

Regarding `COCOc1c(C)nn(C)c(=O)c1-c1cc(-c2ccc(Cl)cc2)ccc1C` [I-1-6], the controlling value in [4], in [7] and in [8] was no less than 90% in each case. In addition, the entries for the “insecticidal index (death rate)” value in data set [5], in data set [6] and in data set [9] were 4 (death rate of 100%), 3 (death rate of 80-99%) and 4 (death rate of 91-100%), respectively.

As to `CCc1cc(CC)c(-c2c(OCS(C)(=O)=O)c(C)nn(C)c2=O)c(CC)c1` [I-4-1, 2,6-dimethyl-5-methylsulfonylmethoxy-4-(2,4,6-triethylphenyl)-3(2H)-pyridazinone], the melting point (usually the temperature, or range, at which the solid turns liquid) is 142 to 143 °C.

The record behind these values is patent publication US8507410B2, “Pyridazinone compound and use thereof” (Sumitomo Chemical Company, Limited, priority 2009, dated 2013).
